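All cell lines were grown in 96-well plates and treated with compound for 48 hours. Abbreviation: GI50, concentration required for 50% inhibition of growth.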 Activity calls are given as the source filed them. Rule as the data show it: active = GI50 up to about 1.1 µM and inactive = higher.
Tests used:
Assay in all cases: inhibition of tumour cell growth, NCI panel, 48 h
[1] = test system: A498
[2] = test system: A549
[3] = test system: CAKI-1
[4] = test system: DU-145
[5] = test system: M14
[6] = test system: MDA-MB-435
[7] = test system: MOLT-4
[8] = test system: Malme-3M
[9] = test system: NCI-H226
[10] = test system: OVCAR-8
[11] = test system: RPMI-8226
[12] = test system: RXF 393
[13] = test system: SF-268
[14] = test system: SK-MEL-5
[15] = test system: SK-OV-3
[16] = test system: SN12C
[17] = test system: SW-620
[18] = test system: U-251
[19] = test system: OVCAR-5
[20] = test system: TK-10

Measured: GI50

Cc1cc(N2CCCC2)c([N+](=O)[O-])cc1[N+](=O)[O-]
inactive: [1] > 100 µM | [2] > 100 µM | [3] > 100 µM | [4] > 100 µM | [5] > 100 µM | [6] > 100 µM | [7] > 100 µM | [8] > 100 µM | [9] > 100 µM | [10] > 100 µM | [11] > 100 µM | [12] 80.9 µM | [13] > 100 µM | [14] > 100 µM | [15] > 100 µM | [16] > 100 µM | [17] > 100 µM | [18] > 100 µM

O=C1CC2(c3ccccc3)ON=C(c3ccccc3)N2c2ccccc2N1 (stereo not given)
inactive: [1] 95.3 µM | [4] 61.5 µM | [5] 60.4 µM | [6] 20 µM | [7] 29.7 µM | [8] 44.5 µM | [9] > 100 µM | [19] > 100 µM | [10] 77.1 µM | [11] 63.4 µM | [12] 87.1 µM | [13] 50.5 µM | [15] 19.7 µM | [16] 52.7 µM | [17] 62.4 µM | [20] 93.5 µM | [18] 80.9 µM

O=C(C1OC1c1ccc(Br)cc1O)C12CC3CC(CC(C3)C1)C2 (stereo not given)
inactive: [1] 97.3 µM | [2] 37.8 µM | [4] 42 µM | [5] 18.1 µM | [6] 13.8 µM | [7] 16.1 µM | [8] 20 µM | [9] 28.5 µM | [19] 41.5 µM | [10] 20.5 µM | [11] 17.8 µM | [12] 21.7 µM | [13] 31.7 µM | [14] 19.5 µM | [16] 15.6 µM | [17] 18.7 µM | [20] 33.9 µM | [18] 15.7 µM

Cc1c2c(n(CCc3ccc(Cl)cc3)c1C)NC(c1ccccc1)C(C#N)S2(=O)=O (stereo not given)
inactive: [1] > 85.7 µM | [2] 22.5 µM | [3] > 100 µM | [4] > 60 µM | [5] 27.2 µM | [6] 11.1 µM | [7] 3.24 µM | [8] 20.5 µM | [9] > 59.7 µM | [19] > 100 µM | [10] 47 µM | [11] 3.51 µM | [13] 40.2 µM | [14] 3.95 µM | [15] > 90.6 µM | [16] > 72.1 µM | [17] > 45.9 µM | [20] > 100 µM | [18] 38.2 µM

CC(C)(O)C1OCC(C2CCC3(C)C4=CCC5C(C)(C)C(O)CCC5(C)C4CCC23C)CC1O (stereo not given)
inactive: [1] 16.7 µM | [2] 14.1 µM | [3] 16 µM | [4] 17.3 µM | [5] 27.7 µM | [6] 15.5 µM | [7] 10.8 µM | [8] 18.5 µM | [9] 13 µM | [19] 19.5 µM | [10] 14.4 µM | [11] 7.94 µM | [13] 16.1 µM | [14] 14.7 µM | [15] 15.8 µM | [16] 14.4 µM | [17] 15.2 µM | [20] 13.2 µM | [18] 14.4 µM

CC1(C)C/N=C/C(C)(OCc2ccccc2)C(=O)NC(C)(C)C/N=C/C(C)(OCc2ccccc2)C(=O)N1 (stereo not given)
inactive: [1] > 10 µM | [2] > 10 µM | [4] > 10 µM | [5] > 10 µM | [6] > 10 µM | [7] > 10 µM | [9] > 10 µM | [19] > 10 µM | [10] > 10 µM | [11] > 10 µM | [12] > 10 µM | [13] > 10 µM | [14] > 10 µM | [15] > 10 µM | [16] > 10 µM | [17] > 10 µM | [20] > 10 µM | [18] > 10 µM

CCCCN(CC)C(=O)C1=C(C)NC(C)=C(C(=O)N(CC)CCCC)C1
inactive: [1] > 100 µM | [2] > 100 µM | [3] > 100 µM | [4] > 100 µM | [5] > 100 µM | [6] 80 µM | [7] > 100 µM | [9] 88.9 µM | [19] > 100 µM | [10] > 100 µM | [12] > 100 µM | [13] > 100 µM | [14] > 100 µM | [15] > 100 µM | [16] > 100 µM | [17] > 100 µM | [20] > 100 µM | [18] > 100 µM

CC1OC23CCCCC2C(C#N)(C#N)C1(C#N)C(=N)O3 (stereo not given)
inactive: [1] 27.2 µM | [2] 96.2 µM | [3] 6.9 µM | [4] 24.3 µM | [5] 20.1 µM | [6] 20.8 µM | [7] 23.2 µM | [8] 20.4 µM | [9] > 100 µM | [19] 22 µM | [10] 20.7 µM | [12] 19.7 µM | [13] 24.7 µM | [14] 16.3 µM | [15] > 100 µM | [16] 15.3 µM | [17] 8.75 µM | [20] 22.5 µM | [18] 22.8 µM

CCCCCCCCCCCCCCCCOCC(CC(F)(F)P(=O)(O)O)OC(C)=O (stereo not given)
inactive: [1] > 50 µM | [2] > 50 µM | [3] > 50 µM | [4] > 50 µM | [5] > 50 µM | [6] > 50 µM | [7] > 50 µM | [8] > 50 µM | [9] > 50 µM | [19] > 50 µM | [11] > 50 µM | [13] > 50 µM | [14] > 50 µM | [15] > 50 µM | [16] > 50 µM | [17] > 50 µM | [20] > 50 µM | [18] > 50 µM

CN(C)c1ccc(/C=C2\C[C@H]3[C@@H]4CCc5cc(OCCN6CCCC6)ccc5[C@H]4CC[C@]3(C)C2=O)cc1
inactive: [1] 1.96 µM | [2] 1.5 µM | [3] 1.45 µM | [4] 1.89 µM | [6] 1.55 µM | [7] 1.31 µM | [9] 1.82 µM | [19] 2.03 µM | [11] 1.75 µM | [12] 1.57 µM | [14] 1.73 µM | [15] 1.87 µM | [16] 1.62 µM | [20] 1.64 µM

CCOC1OC(CO)C(O)CC1n1ccc(=O)[nH]c1=O (stereo not given)
inactive: [1] > 100 µM | [2] > 100 µM | [3] > 100 µM | [4] > 100 µM | [5] > 100 µM | [6] > 100 µM | [8] > 100 µM | [9] > 100 µM | [19] > 100 µM | [10] > 100 µM | [11] > 100 µM | [12] > 100 µM | [13] > 100 µM | [14] > 100 µM | [16] > 100 µM | [17] > 100 µM | [20] > 100 µM | [18] > 100 µM

Cn1c(N)nc(-c2ccc(Cl)cc2)c1SSc1c(-c2ccc(Cl)cc2)nc(N)n1C
inactive: [1] 14.3 µM | [2] 12.8 µM | [4] 12.8 µM | [5] 2.12 µM | [6] 2.05 µM | [7] 5.25 µM | [8] 2.3 µM | [9] 37.2 µM | [19] 1.86 µM | [10] 2.86 µM | [11] 1.31 µM | [12] 2.43 µM | [13] 2.77 µM | [14] 1.82 µM | [15] 14.4 µM | [16] 3.42 µM | [17] 2.07 µM | [20] 1.86 µM | [18] 2.03 µM

CCc1n[nH]c(=O)n1-c1ccncc1
inactive: [1] > 100 µM | [2] > 100 µM | [3] > 100 µM | [4] > 100 µM | [5] > 100 µM | [6] > 100 µM | [7] > 100 µM | [8] > 100 µM | [9] > 100 µM | [19] > 100 µM | [10] > 100 µM | [11] > 100 µM | [12] > 100 µM | [13] > 100 µM | [14] > 100 µM | [16] > 100 µM | [17] > 100 µM | [20] > 100 µM | [18] > 100 µM

Cc1ccnc2nc3[nH]c4ccccc4c3cc12
inactive: [1] > 100 µM | [2] > 100 µM | [3] > 100 µM | [4] > 100 µM | [5] > 100 µM | [6] > 100 µM | [7] > 100 µM | [9] > 100 µM | [19] > 100 µM | [10] 66.8 µM | [11] > 100 µM | [12] > 100 µM | [13] > 100 µM | [14] > 100 µM | [16] > 100 µM | [17] > 100 µM | [20] > 100 µM | [18] 39.1 µM

[N-]=[N+]=NC1=NNC2(C(=O)N1)c1ccccc1-c1ccccc12
inactive: [1] > 100 µM | [2] > 100 µM | [3] > 100 µM | [4] > 100 µM | [5] > 100 µM | [6] 17.4 µM | [8] 18.1 µM | [9] > 100 µM | [19] > 100 µM | [10] > 100 µM | [12] > 100 µM | [13] > 100 µM | [14] > 100 µM | [15] > 100 µM | [16] > 100 µM | [17] > 100 µM | [20] > 100 µM | [18] > 100 µM

Source: ChEMBL document CHEMBL1201862, “PubChem BioAssay data set” (2004)
